Experimental data reported in patent US20040092528A1, “Agent for modulating excitatory synaptic transmission comprising a compound having alpha7 nicotinic acetylcholine receptor activation property” (priority 2000, published 2004).
Where two headings read alike, the source gives them in different places.

Tests used:
[1] = system: CA1 neurones in rat hippocampal slices; test: EPSP recording (amplitude, slope, quantal content) in CA1 neurones in rat hippocampal slices; format: cell-based; details: for increase in EPSP slope: dose-response series
CA1 neurones [2] = test: Membrane potential and input resistance of CA1 neurones; format: cell-based, rat; details: FK960 94 nM and 100 nM, n=11, average exposure 30 mins
CA1 neurones [3] = test: GABAergic inhibitory post-synaptic current (IPSC) in voltage clamped CA1 neurones; format: cell-based, rat
CA1 neurones [4] = test: Excitatory post-synaptic current (EPSC) in CA1 neurones voltage clamped at −70 mV; format: cell-based, rat
[5] = target: α7 nicotinic ACh receptor (Rattus norvegicus, UniProt Q05941); test: Effect of FK960 on EPSP amplitude in the presence of α7 nicotinic ACh receptor antagonists; format: cell-based
α7 nicotinic ACh receptor, sequence (Q05941 23-502): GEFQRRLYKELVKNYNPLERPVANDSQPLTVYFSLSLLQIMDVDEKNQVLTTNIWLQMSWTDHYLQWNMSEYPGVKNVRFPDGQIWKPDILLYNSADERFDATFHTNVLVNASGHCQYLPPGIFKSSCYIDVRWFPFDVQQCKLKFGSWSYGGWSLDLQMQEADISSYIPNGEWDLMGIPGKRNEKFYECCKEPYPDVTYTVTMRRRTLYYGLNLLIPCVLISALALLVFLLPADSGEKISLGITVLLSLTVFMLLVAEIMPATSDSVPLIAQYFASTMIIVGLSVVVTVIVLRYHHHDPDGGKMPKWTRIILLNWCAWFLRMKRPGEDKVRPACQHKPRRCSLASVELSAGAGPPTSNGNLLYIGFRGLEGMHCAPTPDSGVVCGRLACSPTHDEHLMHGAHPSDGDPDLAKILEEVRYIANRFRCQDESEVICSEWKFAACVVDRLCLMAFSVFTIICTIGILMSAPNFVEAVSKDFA

cholinergic receptors = test: Displacement of radiolabelled ligands with high affinity to cholinergic receptors; format: binding; details: a number of assays
rats = rats in vivo; cited from earlier work
guinea-pig hippocampus = details: cited from earlier work
rat hippocampus = details: cited from earlier work
[6] = one CA1 neurone (FIG. 1), 100 nM FK960

Question: For `CC(=O)N1CCN(NC(=O)c2ccc(F)cc2)CC1` [FK960, N-(4-acetyl-1-piperazinyl)-p-fluorobenzamide monohydrate], which “dose-response relationship (shape)” value ([1]; 0, 50, 100, 200 nM FK960, EPSP slope) is on record?
Answer: bell-shaped

Question: What about the “increase in mean EPSP amplitude” value ([1]; 100 nM FK960, 21 min, n=9 neurones) of the same compound?
Answer: 65%

Question: And the “mean EPSP amplitude” value ([1]; 100 nM FK960, 21 min, n=9 neurones, 2.3 mV before)?
Answer: 3.8 mV

Question: What about the “mean increase in 1/CV^2 (quantal content)” value ([1]; 100 nM FK960, 21 minutes, pooled neurones) of the same compound?
Answer: 53%

Question: What about the “1/CV^2 (quantal content), mean” value ([1]; 100 nM FK960, 21 minutes, 6.4 before) of the same compound?
Answer: 9.8

Question: What about the “increase in mean EPSP slope” value ([1]; 100 nM FK960, after 21 mins, n=9) of the same compound?
Answer: 51%

Question: What about the “mean EPSP slope” value ([1]; 100 nM FK960, after 21 mins, n=9, 357.8 mV/s before) of the same compound?
Answer: 540.5 mV/s

Question: And the “frequency of spontaneous EPSPs” value ([1]; 4 neurones, 20-30 min after exposure to 100 nM FK960, 0.65 before)?
Answer: 0.54 spontaneous EPSP/sec

Question: What about the mean quantum size ([1]; after 21 minutes exposure to 100 nM FK960, 7 neurones, 0.39 mV before) of the same compound?
Answer: 0.42 mV

Question: What about the “increase in EPSP amplitude” value ([1]; after 27 mins in FK960, n=7) of the same compound?
Answer: 64%

Question: And the EPSP amplitude ([1]; after 27 mins in FK960, n=7, 2.2 mV before)?
Answer: 3.6 mV

Question: What about the “increase in EPSP slope” value ([1]; 50 nM FK960) of the same compound?
Answer: smaller and not significant

Question: And the “increase in EPSP slope” value ([1]; 100 nM FK960, n=5, after 21 mins, control aCSF 11%)?
Answer: 55%

Question: And the “increase in EPSP slope” value ([1]; 200 nM FK960)?
Answer: smaller and not significant

Question: What about the “increase in mean EPSP amplitude” value [1, 6] of the same compound?
Answer: 123%

Question: What about the “rise in quantal content” value [1, 6] of the same compound?
Answer: 109%

Question: What about the “mean EPSP amplitude” value ([1]; one CA1 neurone (FIG. 1), 100 nM FK960, n=287 EPSPs, 2.6 mV in control aCSF) of the same compound?
Answer: 5.8 mV

Question: And the “increase in slope of the rising phase of the averaged EPSP” value ([1]; one CA1 neurone (FIG. 1), 21 min 40 sec after 100 nM FK960)?
Answer: 127%

Question: And the “slope of the rising phase of the averaged EPSP” value ([1]; one CA1 neurone (FIG. 1), 21 min 40 sec after 100 nM FK960, 326.7 mV/s before)?
Answer: 742.8 mV/s

Question: And the “quantal content (1/CV^2)” value ([1]; one CA1 neurone (FIG. 1), after 20 mins in 100 nM FK960, 6.4 before)?
Answer: 13.4

Question: What about the “mean EPSP amplitude” value ([1]; one CA1 neurone (FIG. 1), after 21 min in 100 nM FK960, 2.6 mV (n=50) before) of the same compound?
Answer: 5.5 mV

Question: And the input resistance (CA1 neurones [2]; 175.3 MΩ in control aCSF)?
Answer: 164.2 MΩ

Question: And the resting membrane potential (CA1 neurones [2]; −60.3 mV in control aCSF)?
Answer: −59.4 mV

Question: And the “effect on the IPSC” value (CA1 neurones [3]; 100 nM FK960)?
Answer: no significant effect

Question: What about the “Mean IPSC amplitude” value (CA1 neurones [3]; 3 experiments, FK960, 48 pA in control aCSF) of the same compound?
Answer: 46 pA

Question: And the IPSC peak amplitude (CA1 neurones [3]; one CA1 neurone (FIG. 4), 21 minutes in FK960, 39 pA in control aCSF)?
Answer: 38 pA

Question: What about the “EPSC decay time constant τEPSC” value (CA1 neurones [4]; 4 experiments, 20-22 mins exposure to 100 nM FK960, 22.2 ms before) of the same compound?
Answer: 28.4 ms

Question: And the EPSC amplitude (CA1 neurones [4]; 4 experiments, 20-22 mins exposure to 100 nM FK960, 98.3 pA before)?
Answer: 158.3 pA

Question: And the EPSC amplitude (CA1 neurones [4]; one neurone (FIG. 5C), FK960, 103 pA before)?
Answer: 175 pA

Question: What about the “increase in mean EPSP amplitude” value [5] of the same compound?
Answer: 11%

Question: And the “mean EPSP amplitude” value [5]?
Answer: 2.0 mV

Question: And the “mean EPSP amplitude” value ([5]; 21 minutes exposure to 100 nM FK960 in 100 nM MLA, 5 CA1 neurones, unchanged)?
Answer: 2.6 mV

Question: What about the “rise in EPSP amplitude” value ([5]; FK960 in 10 nM MLA, 21 minutes, n=3, from 3.1 mV) of the same compound?
Answer: 10%

Question: And the “displacement of radiolabelled ligands with high affinity to cholinergic receptors” value (cholinergic receptors)?
Answer: failed to displace

Question: And the “effect on scopolamine-induced cognitive deficits” value (rats)?
Answer: reverse scopolamine-induced cognitive deficits

Question: And the “effect on magnitude of long-term potentiation” value (guinea-pig hippocampus; guinea pig hippocampus, 100 nM FK960)?
Answer: significantly increased the magnitude of long-term potentiation

Question: And the “effect on magnitude of long-term potentiation” value (guinea-pig hippocampus; guinea-pig hippocampus in vitro)?
Answer: increase the magnitude of long-term potentiation

Question: What about the “effect on amplitude of the un-potentiated population spike” value (rat hippocampus) of the same compound?
Answer: increases the amplitude of the un-potentiated population spike

Question: What does the source list for `O=C(c1ccc2nccnc2c1)N1CCCCC1` [FR212436, 1-(quinoxalin-6-ylcarbonyl)piperidine]?
Answer: EPSC decay time constant τEPSC (CA1 neurones [4]; 200 μM FR212436 for 20 min, n=3, 15.0 ms before): 22.4 ms; EPSC amplitude (CA1 neurones [4]; 200 μM FR212436 for 20 min, n=3, 84 pA before): 181.3 pA; EPSC decay time constant τEPSC (CA1 neurones [4]; 2 mM FR212436 for 5-10 min, n=3, 21.5 ms before): 46.7 ms; EPSC amplitude (CA1 neurones [4]; 2 mM FR212436 for 5-10 min, n=3, 73.7 pA before): 239.7 pA; EPSC amplitude (CA1 neurones [4]; one neurone (FIG. 5A), FR212436 200 μM, 42 pA before): 95 pA; EPSC amplitude (CA1 neurones [4]; one neurone (FIG. 5B), FR212436 2 mM, 87 pA before): 247 pA

Question: For α-bungarotoxin [reference compound], which “effect of antagonist on the action of FK960 on the EPSP” value [5] is on record?
Answer: attenuated

Question: And the “mean EPSP amplitude” value [5]?
Answer: 1.6 mV
